Like-named read-outs stand apart in the source and are kept apart here. Blank lines part the entries; values can stand above or below the compound they belong to.
What was measured:
vaginal dryness = assay: Vaginal dryness symptoms by visual analogue scale (subjective estimates); type: in vivo, healthy postmenopausal female volunteers; details: FIG. 2; for Effect on vaginal dryness, individuals' subjective estimate (visual analogue scale): change pre-treatment to 3 months, all ospemifene dosage levels (30, 60, 90 mg daily), raloxifene 60 mg daily
Procedure: The vaginal dryness symptoms were also assessed by using a visual analogue scale where the volunteers themselves recorded their subjective estimates. The scale is based on a 100-mm line on paper. The left end represents no symptom and the right end the worst possible symptom. The change from pre-treatment to 3 months estimates was assessed and considered to be indicative of the treatment efficacy.

sexual activity = details: of 70 patients followed up for 6 weeks
From the text: In the clinical study, where the effects of ospemifene on quality of life and cardiovascular parameters were studied, the patients were asked for sexual activity. The questionnaire included “worsening” or “no effect” on sexual activity. Improvement on sexual activity was not asked. When 70 patients had been followed up for 6 weeks, 27 of them had spontaneously reported to the investigators increased sexual activity. Similar reports were independently obtained from different centers of the study.

vaginal epithelium = details: for Change in maturity index for superficial cells (MI 3), mean: index 100 full estrogen, index 0 no estrogenicity; for Change in maturity index for parabasal cells (MI 1), mean: index 100 no estrogenicity, index 0 full estrogen; for Pathological changes in cervical smear samples: 3 months' treatment, any sample; for Change from baseline to post-treatment in karyopyknosis index for superficial cells, individual subjects: ospemifene 30, 60, 90 mg daily, raloxifene 60 mg daily, all cases except one
Procedure: Raloxifene (60 mg daily) was used as reference. […] There were 29 volunteers at each dose level, as well as in the raloxifene group. Ospemifene was administered in gelatine capsules containing either 30, 60 or 90 mg of ospemifene. […] The vaginal epithelium was assessed by karyopyknosis index which is a well known assessment method among the skilled persons. In this method, the vaginal fraction of the cervical smears is estimated as the percentage of the number of cells from different layers: the parabasal cell layer; the intermediate cell layer; and the superficial cell layer. Estrogenicity is seen by a shift towards superficial cell fraction. […] Samples were taken before and after the treatment (at 3 months).

[1] = clinical studies
Procedure: (§1) Tolerability and pharmacokinetics were also assessed.

endometrium = details: for Increase in thickness of the endometrium, average: statistically not significant
Procedure: as §1

[2] = 30 mg daily perorally, 3 months
[3] = 60 mg daily perorally, 3 months
[4] = 90 mg daily perorally, 3 months

SMILES: OCCOc1ccc(/C(=C(/CCCl)c2ccccc2)c2ccccc2)cc1 [Ospemifene, (deaminohydroxy)toremifene]
- Effect on vaginal dryness, comparison of dose levels (vaginal dryness; 60 mg daily, 3 months): best result
- Effect on vaginal dryness, individuals' subjective estimate (visual analogue scale) (vaginal dryness): clear decreasing effect
- Patients spontaneously reporting increased sexual activity (sexual activity): 27
- Change in maturity index for superficial cells (MI 3), mean (vaginal epithelium; [2]): +12.4
- Change in maturity index for parabasal cells (MI 1), mean (vaginal epithelium; [2]): −40
- Change in maturity index for superficial cells (MI 3), mean (vaginal epithelium; [3]): +5.5
- Change in maturity index for parabasal cells (MI 1), mean (vaginal epithelium; [3]): −26
- Change in maturity index for superficial cells (MI 3), mean (vaginal epithelium; [4]): +12.5
- Change in maturity index for parabasal cells (MI 1), mean (vaginal epithelium; [4]): −48
- Pathological changes in cervical smear samples (vaginal epithelium): No pathological changes
- Change from baseline to post-treatment in karyopyknosis index for superficial cells, individual subjects (vaginal epithelium; 12 weeks' treatment): < 40
- Estrogenic effect in the cervical smear (vaginal epithelium; 30, 60, 90 mg daily, 3 months): weak but statistically significant estrogenic effect
- Effect on vaginal atrophy (vaginal epithelium; 30, 60 and 90 mg daily, 3 months, elderly female volunteers): significant decrease in vaginal atrophy
- Increase in karyopyknosis index for superficial cells, single highest case (vaginal epithelium; one case in the 90 mg group, 12 weeks' treatment): 45
- Tolerability [1]: excellent tolerability
- Increase in thickness of the endometrium, average (endometrium; 30 mg daily, 3 months): 0.2 mm
- Increase in thickness of the endometrium, average (endometrium; 60 mg daily, 3 months): 0.5 mm
- Increase in thickness of the endometrium, average (endometrium; 90 mg daily, 3 months): 0.5 mm
- Estrogenic effect on endometrial histology (endometrium; 30, 60, 90 mg daily, 3 months): weak estrogenic effect
- Malignant findings in the endometrium (endometrium; 30, 60, 90 mg daily, 3 months): no malignant findings
- Measured values of endometrial thickness (endometrium; 30, 60, 90 mg daily, all measured values): smaller than 8 mm

- Pathological changes in cervical smear samples (vaginal epithelium): No pathological changes
SMILES: O=C(c1ccc(OCCN2CCCCC2)cc1)c1c(-c2ccc(O)cc2)sc2cc(O)ccc12 [Raloxifene, raloxifene, reference compound]
- Effect on vaginal dryness, individuals' subjective estimate (visual analogue scale) (vaginal dryness): only a minor decrease
- Change in maturity index for superficial cells (MI 3), mean (vaginal epithelium; [3]): −0.3
- Change in maturity index for parabasal cells (MI 1), mean (vaginal epithelium; [3]): −2
- Change from baseline to post-treatment in karyopyknosis index for superficial cells, individual subjects (vaginal epithelium; 12 weeks' treatment): no one in the raloxifene group (FIG. 1D) had a significant change

Reference: patent publication US9566252B2, “Method for the alleviation of dyspareunia in women” (HORMOS MEDICAL LTD., priority 2000, dated 2017)
